Experiments:
p-tau isoform 1N4R = molecular target: T1, p-tau isoform 1N4R (Homo sapiens, UniProt P10636); type: biochemical; details: protein 60 μM, compound 600 μM (1:10), 24 hours at 37° C.
T1 construct: made in house
Procedure: To confirm the general anti-fibrillar effect of compound 10, transmission electron microscopy (TEM) was used as an orthogonal assay. After incubating recombinant proteins (at 60 μM) with 600 μM compound 10 for 24 hours at 37° C., TEM was utilized to detect fibril formation.^32 A volume of 10 μL was applied on a 400-mesh Formvar-carbon-coated copper grid (Electron Microscopy Sciences, Hatfield, PA). The grids were incubated for 1 minute and washed three times with distilled water. They were carefully air-dried and incubated for 1 minute in a fresh solution of 1% uranyl acetate. Samples were air-dried and observed using a transmission microscope. Visualization of the grids was performed with transmission electron microscopy (JEOL 1400 Flash, Japan). Acquisition of pictures was performed with the following settings: accelerating voltage of 100 kV and magnification of 40k.

α-syn = molecular target: T2, α-syn (Homo sapiens, UniProt P37840); experiment: PICUP cross-linking assay of α-syn oligomer formation; type: biochemical
T2 construct: purchased rPeptide
Procedure: PICUP is a technique in which oligomer formation is induced by cross-linking. To induce oligomerization by cross-linking, α-syn (from Rpeptide, LLC) and tau isoform 2N4R were diluted in 10 mM phosphate buffer (pH 7.4) to reach a final concentration of 10 μM. Different compounds were added to the protein solution at a final concentration of 50 μM, resulting in a molar ratio of 1:5. To confirm the gradual effect of compounds on the inhibition of α-syn oligomerization, compounds were tested at final concentration of 3.125, 6.25, 12.5, 25, and 50 μM. The controls consisted of samples without light exposition, without Ru(bpy) or ammonium persulfate, and without compound (i.e., 0.125% DMSO). The cross-linking reaction was initiated by the addition of 2 μL of Ru(bpy) (300 μM final concentration) and 2 μL ammonium persulfate (6 mM final concentration).^32 Samples were irradiated immediately. Light exposure was of a 1 second duration for α-syn and a 3 second duration for tau isoform 2N4R, with a 53 W (120 V) incandescent lamp installed in a homemade dark-box. Each tube contained a final volume of 20 μL. After irradiation, 8.3 μL of Laemmli loading buffer containing 15% 0-mercaptoethanol was immediately added to the solution, followed by incubation at 95° C. for 10 min. The cross-linked samples were separated on a 16% SDS-PAGE gel and visualized by Coomassie blue staining.

alpha-synuclein (α-syn) = molecular target: T3, alpha-synuclein (α-syn) (Homo sapiens, UniProt P37840); experiment: Thioflavin T (ThT) fluorescence assay of α-syn fibril formation; type: biochemical; details: compound 100 μM
T3 construct: purchased rPeptide
Procedure: Thioflavin fluorescence assays. Thioflavin fluorescence assays were used to monitor fibril formation of recombinant α-syn, tau isoform 2N4R, treated with control DMSO and different compounds. Kinetics of α-syn fibrillization were performed using thioflavin T (ThT) as published previously.^32′ ^37 The fluorescence emission experiments were performed with the excitation and emission wavelengths set at 440 and 485 nm, respectively, with a Synergy HT multi-mode microplate reader (BioTek, Winooski, VT). Samples were measured in three replicates and the experiments were repeated three times using at least two different stock solutions. For each time point, arbitrary units of fluorescence were calculated from the mean values normalized against the maximum value in each completed assay. All results contained in FIG. 1 were presented as mean±SEM.
FIG. 1. Chemical structure, physicochemical descriptors, and the effect of compounds on alpha-synuclein (α-syn) aggregation measured as fluorescence intensity using ThT assay. TPSA, Log P, and Log D were obtained with SwissADME. BBB and pKa were obtained from the Blood-Brain Barrier Prediction Server (https://www.cbligand.org/BBB/) and Chemaxon, respectively. CNS MPO scores were assessed as published previously, The ThT (%) represent the maximum fluorescence intensity obtained at the plateau phase of the kinetics of fibrillization using 6.25 μM of α-syn. Compounds were tested at 100 μM (molar ratio 1:16). BBB, blood-brain barrier; C log D, calculated distribution coefficient at 7.4; C log P, calculated partition coefficient; CNS MPO, Central Nervous System Multi Parameter Optimization; HBA, Hydrogen Bond Acceptor; HBD, Hydrogen Bond Donor; LR5, Lipinski's rule of five; pKa, negative log of acid dissociation constant; ThT, Thioflavin T; TPSA, Topological polar surface area.

[1] = test system: M17D-TR/αS3K::YFP neuroblastoma cells; experiment: α-syn inclusion formation in dox-inducible neuroblastoma cells; type: cell-based
Procedure: (§1) The dox-inducible neuroblastoma cell line M17D-TR/αS3K::YFP was used to evaluate the effect of compounds in preventing the formation of inclusion following induction with Dox. Dox-inducible neuroblastoma cells M17D-TR/αS-3K::YFP have been used previously. 96-well plates were used with cellular density of 30,000 cells per well. Compounds were added after 24 h and aS-3K::YFP transgene expression was induced […]. Induction was done by adding 1 μg per mL (final concentration) dox to culture media. Cells were incubated in the Incucyte Zoom 2000 platform (Essen Biosciences) and images (green, bright field) were taken continuously. Endpoint analysis of inclusion formation or growth was performed 48 h after induction (96 h after plating). The Incucyte processing definition ‘Inclusions’ was created as follows: Parameters, Fixed Threshold, Threshold (GCU) 50; Edge Split On, Edge Sensitivity 100; Cleanup, Hole Fill (μm^2): 10, Adjust Size (pixels): 0; Filters, Area (μm^2): max 50, Mean Intensity: min 60, Integrated Intensity: min 2000. […] As described previously for the evaluation of protein expression by SDS-PAGE and Western Blotting in the LiCor system, αS-specific monoclonal antibody 4B12 (Thermofisher, Waltham, MA; 1:1000) and a polyclonal antibody to GAPDH (Sigma-Aldrich, St. Louis, MO, G9545; 1:5000) were used.

[2] = as above; type: cell-based; details: human, m17d neuroblastoma cells; read-out: concentration from which a small level of toxicity is seen (cell confluence)
Procedure: as §1

T1 sequence (P10636 1-412 isoform P10636-7): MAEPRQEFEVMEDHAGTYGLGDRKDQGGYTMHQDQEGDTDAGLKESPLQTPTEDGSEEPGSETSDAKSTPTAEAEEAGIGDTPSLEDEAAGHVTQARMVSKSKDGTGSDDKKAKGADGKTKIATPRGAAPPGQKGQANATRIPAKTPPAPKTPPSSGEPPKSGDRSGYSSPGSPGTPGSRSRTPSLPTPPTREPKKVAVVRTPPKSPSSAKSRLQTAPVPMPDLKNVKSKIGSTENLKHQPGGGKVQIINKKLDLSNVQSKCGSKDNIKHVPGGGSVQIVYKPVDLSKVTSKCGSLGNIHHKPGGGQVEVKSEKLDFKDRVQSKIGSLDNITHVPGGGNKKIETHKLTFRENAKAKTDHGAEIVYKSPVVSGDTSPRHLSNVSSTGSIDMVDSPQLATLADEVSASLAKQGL

## c1cc(Nc2ncnc(Nc3cccc4[nH]ccc34)n2)c2cc[nH]c2c1 [Compound 10, N2,N4-bis(1H-indol-4-yl)-1,3,5-triazine-2,4-diamine]
p-tau isoform 1N4R
  p-tau isoform 1N4R fibril ultrastructure (TEM): less fibrils resulted from this treatment
α-syn; compound 50 μM, high molecular weight oligomers around 50 kDa
  α-syn oligomer formation (PICUP, in words): inhibited both α-syn and tau oligomer formation
α-syn; compound 3.125 to 50 μM
  α-syn oligomerization at different concentrations (PICUP): effective in reducing oligomerization of α-syn and tau isoform 2N4R in a dose-dependent manner
alpha-synuclein (α-syn); α-syn 6 μM
  lag time of α-syn fibril elongation: delayed slightly the lag time
alpha-synuclein (α-syn); α-syn 6.25 μM (molar ratio 1:16), compared with DMSO control, mean±SEM, read-out: ThT fluorescence intensity (FI), maximum at the plateau phase of α-syn fibrillization
  activity at 100 µM: 13.5 ± 1.7%
[1]; Neuroblastoma cell, read-out: concentration from which α-syn inclusion body formation is reduced
  minimal effective concentration: ≥ 2.5 µM
[1]; compound 10 μM
  α-syn expression levels (Western blot): reduced
[1]; compound 40 μM
  toxicity (cell confluence, in words): more intense toxicity
[1]; compound 7: 2.5 to 20 μM, compound 10: 2.5 to 40 μM, readout 96 h after plating, vs 0.1% DMSO
  α-syn inclusion formation (punctate YFP signal, in words): reduced α-syn inclusion formation
[2]
  MCC: ≥ 10 µM
